Measured values as given in US20160090351A1, “INHIBITORS OF DEUBIQUITINATING PROTEASES” (BRANDEIS UNIVERSITY, priority 2013, published 2016).

Columns and labels:
UCH-L5, UCH-L3, UCH-L1 = assay: HA-Ub-VS activity profiling in cell lysates, UCH-Ls; format: biochemical, human; settings: for HA-Ub-VS labeling of UCHL enzymes: 75 μM, 30 minutes preincubation
Protocol: HA-ubiquitin vinylsulfone (HA-Ub-VS) irreversibly labels DUBs by modifying the catalytic cysteine residue Inhibition of the DUB prevents HA-Ub-VS labeling and the band is. […] The interaction with UCHL1/3 is reversible.
Lysate labeling assay on untransfected cells (1.5 mg/mL) was run with the stated concentration of inhibitor (or 1% DMSO control) for between 19-60 mins. After this time HA-Ub-VS (1.5-0.7 μM) was added and incubated for 19 mins. After this time reaction mixture (9 μL) was removed and quenched in 2× (final concentration) reducing loading buffer. For recovery experiments, a lysate of 6 mg/mL was treated with saturating compound C14 (250 μM) and incubated for 40 mins. Afterward, the lysate was diluted to 0.6 mg/mL (final concentration of inhibitor 25 μM) in lysis buffer (final volume 100 μL), then HA-Ub-VS was added. Aliquots (15 μL) were removed at the stated time (5-119 mins) and immediately quenched in 2× (final concentration) reducing loading buffer. For all HA-Ub-VS experiments samples in loading buffer were heated only to 37° C. prior to loading on a gel. This assay is highly susceptible to concentration of lysate and HA-Ub-VS. Cell experiments were carried out as above with some modifications. For Cos-1 and MCF-7 cells, after trypsinization, media with compound was added to give a final concentration of compound equal to that used in the assay. Cell pellets were lysed on an ice/salt bath with a temperature of −5° C. and lysate was centrifuged for only 5 mins.
HA-Ub-VS is an irreversible inhibitor of DUBs that is widely used in activity profiling. If the DUB inhibitors react to form a thiocarbonylated enzyme as proposed (FIG. 29B), then HA-Ub-VS labeling will be blocked. Treatment of HEK 293T lysates with HA-Ub-VS produced the characteristic pattern of protein bands at 250, 150-100, 45, 38 and 36 kDa, generally ascribed to USP9x (292 kDa), USP19 (146 kDa), USP7/8 (128 and 127 kDa, respectively), USP28/15 (122 and 112 kDa, respectively), UCH-L5 (38 kDa), UCH-L3 (26 kDa) and UCH-L1 (25 kDa) as depicted in FIG. 31.
The effect of diphenylcarbonates on HA-Ub-VS labeling was assessed to investigate the selectivity of DUB inhibition. Lysates were preincubated with diphenyl carbonates (75 μM), then treated with HA-Ub-VS (FIG. 31A). […] These C17 and C22-sensitive DUBs are most likely USP9x, USP19, USP7/8 and UCHL5, based on molecular weight (FIGS. 31B and 38). The identity of USP7 was confirmed by immunoblotting (FIG. 38F). […] Similar behavior was observed on Cos-1 cell lysates (FIG. 38B).

[1] = test system: ubiquitin-proteasome system; assay: GFP-G76V-Ub assay in HEK 293T cells; format: cell-based, human; settings: diphenyl carbonates 100 μM, bortezomib 20 μM, G5 2 μM
Protocol: FIG. 32 depicts data showing that diphenyl carbonates inhibit DUBs in HEK 293T cells. A. Viability of HEK 293T cells assessed by the propidium iodide exclusion method: diphenyl carbonate (100 μM), bortezomib (V, 20 μM) and G5 (2 μM). N≧3, mean+/−s.d. B. HEK 293T cells were treated with the stated compounds (50 μM) for 2 h and then assayed for the accumulation of K48-linked Ub species. C. As in A, but K63-linked Ub was assayed. D. HEK 293T cells were treated with C14, C15, C17, C18 (100 μM) or DMSO for 2 hours, then harvested, lysed and treated with HA-Ub-VS. After 30 min, lysates were analyzed by SDS-PAGE and probed for HA, tubulin and actin. An intervening lane was removed for clarity. E. HEK 293T cells expressing Ub-G76V-GFP were treated with diphenyl carbonates (100 μM), bortezomib (20 μM) and G5 (2 μM). […] N>3, Mean+/−s.d. See also FIG. 39.
FACS was carried out on a […] FACS-Calibur. For HEK 293T and K562, cells were resuspended by repeated pipetting/agitation of the incubation media, followed by dilution into PBS. For Cos-1, MCF-7, and CHO cells, media was removed and trypsin was added. Harvested cells were placed in FACS buffer (0.5% FBS in PBS with 3 μg/mL propidium iodide) 30 s prior to analysis. All data were analyzed using FlowJo V10, from TreeStar (Ashland, Oreg.). Approximately 2500 cells were sorted per replicate. Cells were sorted by propidium iodide dye exclusion to give a “viable population”. GFP positive cells within this group were identified relative to untransfected controls. Then the geometric mean of the whole GFP positive population within the viable population was calculated. Typical transfection efficiencies for G76V ubiquitin were 60-70% for both Cos-1 and HEK 293T and 25-40% for CHO cells, based on GFP positive cells.
The activity of the diphenylcarbonates in the GFP-G76V-Ub assay, which monitors flux through the ubiquitin-proteasome system, was also investigated. The G76V mutation creates an unstable Ub fusion protein that is degraded in a proteasome dependent process. GFP fluorescence increased when HEK 293T cells expressing GFP-G76V-Ub were treated with the proteasome inhibitor bortezomib and decreased upon treatment with G5 (FIG. 39). This decrease has been attributed to increased flux through the ubiquitin-proteasome system triggered by the accumulation of HMW-Ub. […] Perhaps the inability of the diphenylcarbonates to inhibit UCH-L1/3 accounts for the stability of GFP-G76V-Ub. This selectivity might also explain the low cytoxicity of these compounds relative to G5.

| Structure (SMILES) | HA-Ub-VS labeling of UCHL enzymes (UCH-L5, UCH-L3, UCH-L1; HEK 293T lysates) | GFP fluorescence [1] | inhibition of UCH-L1/3/5, dose response (UCH-L5, UCH-L3, UCH-L1; below 50 μM) | HA-Ub-VS labeling of UCH-Ls (UCH-L5, UCH-L3, UCH-L1; HEK 293T lysates, preincubation with G5) |
| --- | --- | --- | --- | --- |
| NCc1ccc(OC(=O)Oc2cccc3ccccc23)cc1 [Compound C18] | relatively little effect on the UCHL enzymes | no change in fluorescence was observed | – | – |
| NCc1ccc(OC(=O)Oc2ccc(Cl)cc2)cc1 [Compound C14, 4-(aminomethyl)phenyl(4-chlorophenol)carbonate] | relatively little effect on the UCHL enzymes | no change in fluorescence was observed | – | – |
| NCc1ccc(OC(=O)Oc2ccc3ccccc3c2)cc1 [Compound C17] | relatively little effect on the UCHL enzymes | no change in fluorescence was observed | little inhibition of UCH-L1/3/5 was observed below 50 μM | – |
| O=C1/C(=C/c2ccc([N+](=O)[O-])cc2)CS(=O)(=O)C/C1=C\c1ccc([N+](=O)[O-])cc1 [Compound G5, reference compound] | – | decreased | – | UCH-L1 but not UCH-L3 |
| NCc1ccc(OC(=O)Oc2ccc(Br)cc2)cc1 [Compound C15, 4-(aminomethyl)phenyl(4-bromophenyl)carbonate] | relatively little effect on the UCHL enzymes | no change in fluorescence was observed | – | – |
